Values after ≈ are worked out from the molar mass of the structure shown.
How the values were obtained:
[1] = system: Aspergillus fumigatus; test: Lowest concentration required to inhibit 90-100% of the visible growth of Aspergillus fumigatus; type: functional
[2] = system: Cryptococcus neoformans; test: Tested in vitro for lowest concentration required to inhibit 90-100% of the visible growth of Cryptococcus neoformans
[3] = system: Candida albicans; test: Lowest concentration required to inhibit 90-100% of the visible growth of Candida albicans; type: functional
[4] = system: Candida albicans; test: Lowest concentration required to inhibit 90-100% of the visible growth of Candida albicans; Range is […]; type: functional
[5] = system: Candida albicans; test: Lowest concentration required to inhibit 90-100% of the visible growth of Candida albicans; Range is 0.625-1.25; type: functional
[6] = system: Cryptococcus neoformans; test: Tested in vitro for lowest concentration required to inhibit 90-100% of the visible growth of Cryptococcus neoformans; Range is 0.02-0.078
[7] = system: Candida albicans; test: Lowest concentration required to inhibit 90-100% of the visible growth of Candida albicans; Range is 0.312-1.25; type: functional

| Structure (SMILES) | MIC [1] | MIC [2] | MIC [3] | MIC [4] | MIC [5] | MIC [6] | MIC [7] |
| --- | --- | --- | --- | --- | --- | --- | --- |
| C/C=C1\NC(=O)[C@H]([C@H](C)O)NC(=O)[C@H](CCN)NC(=O)[C@H](CCCCN)NC(=O)[C@H](CC(=O)O)NC(=O)[C@@H](CCN)NC(=O)[C@@H](NC(=O)C[C@@H](O)CCCCCCCCCCCCCCCCC)COC(=O)[C@H]([C@H](O)CCl)NC(=O)[C@H]([C@H](O)C(=O)O)NC1=O | > 20 µg/mL | 5 µg/mL (≈ 3.87 µM) | 5 µg/mL (≈ 3.87 µM) |  |  |  |  |
| C/C=C1\NC(=O)[C@H]([C@H](C)O)NC(=O)[C@H](CCN)NC(=O)[C@H](CCCCN)NC(=O)[C@H](CC(=O)O)NC(=O)[C@@H](CCN)NC(=O)[C@@H](NC(=O)C[C@@H](O)CCCCCCCCCCCCCCC)COC(=O)[C@H]([C@H](O)CCl)NC(=O)[C@H]([C@H](O)C(=O)O)NC1=O | 10 µg/mL (≈ 7.91 µM) | 0.312 µg/mL (≈ 0.247 µM) | 2.5 µg/mL (≈ 1.98 µM) |  |  |  |  |
| C/C=C1\NC(=O)[C@H]([C@H](C)O)NC(=O)[C@H](CCN)NC(=O)[C@H](CCCCN)NC(=O)[C@H](CC(=O)O)NC(=O)[C@@H](CCN)NC(=O)[C@@H](NC(=O)C[C@@H](O)CCCCCCCCCCC)COC(=O)[C@H]([C@H](O)CCl)NC(=O)[C@H]([C@H](O)C(=O)O)NC1=O | > 20 µg/mL |  |  | 5 µg/mL (≈ 4.14 µM) |  |  |  |
| C/C=C1\NC(=O)[C@H]([C@@H](C)O)NC(=O)[C@H](CCN)NC(=O)[C@H](CCCCN)NC(=O)[C@H](CC(=O)O)NC(=O)[C@@H](CCN)NC(=O)[C@@H](NC(=O)CC(O)CCCCCCCCCCC)COC(=O)[C@H]([C@H](O)CCl)NC(=O)[C@H]([C@H](O)C(=O)O)NC1=O (mixture of isomers) | > 20 µg/mL |  |  |  | 1.25 µg/mL |  |  |
| C/C=C1\NC(=O)[C@H]([C@H](C)O)NC(=O)[C@H](CCN)NC(=O)[C@H](CCCCN)NC(=O)[C@H](CC(=O)O)NC(=O)[C@@H](CCN)NC(=O)[C@@H](NC(=O)C[C@H](O)CCCCCCCCCCCCCCCCC)COC(=O)[C@H]([C@H](O)CCl)NC(=O)[C@H]([C@H](O)C(=O)O)NC1=O | 5 µg/mL (≈ 3.87 µM) | 1.25 µg/mL (≈ 0.968 µM) | 5 µg/mL (≈ 3.87 µM) |  |  |  |  |
| C/C=C1\NC(=O)[C@H]([C@@H](C)O)NC(=O)[C@H](CCN)NC(=O)[C@H](CCCCN)NC(=O)[C@H](CC(=O)O)NC(=O)[C@@H](CCN)NC(=O)[C@@H](NC(=O)CC(O)CCCCCCCCCCCCCCC)COC(=O)[C@H]([C@H](O)CCl)NC(=O)[C@H]([C@H](O)C(=O)O)NC1=O (mixture of isomers) | 5 µg/mL |  | 1.25 µg/mL |  |  | 0.02 µg/mL |  |
| C/C=C1\NC(=O)[C@H]([C@H](C)O)NC(=O)[C@H](CCN)NC(=O)[C@H](CCCCN)NC(=O)[C@H](CC(=O)O)NC(=O)[C@@H](CCN)NC(=O)[C@@H](NC(=O)C[C@H](O)CCCCCCCCCCC)COC(=O)[C@H]([C@H](O)CCl)NC(=O)[C@H]([C@H](O)C(=O)O)NC1=O [PSEUDOMYCIN B] | > 20 µg/mL |  |  |  |  |  | 1.25 µg/mL (≈ 1.03 µM) |
| C/C=C1\NC(=O)[C@H]([C@@H](C)O)NC(=O)[C@H](CCN)NC(=O)[C@H](CCCCN)NC(=O)[C@H](CC(=O)O)NC(=O)[C@@H](CCN)NC(=O)[C@@H](NC(=O)CC(O)CCCCCCCCCCCCCCCCC)COC(=O)[C@H]([C@H](O)CCl)NC(=O)[C@H]([C@H](O)C(=O)O)NC1=O (mixture of isomers) | 2.5 µg/mL | 0.625 µg/mL | 10 µg/mL |  |  |  |  |
| C/C=C1\NC(=O)[C@H]([C@H](C)O)NC(=O)[C@H](CCN)NC(=O)[C@H](CCCCN)NC(=O)[C@H](CC(=O)O)NC(=O)[C@@H](CCN)NC(=O)[C@@H](NC(=O)C[C@H](O)CCCCCCCCCCCCCCC)COC(=O)[C@H]([C@H](O)CCl)NC(=O)[C@H]([C@H](O)C(=O)O)NC1=O | 2.5 µg/mL (≈ 1.98 µM) | 0.01 µg/mL (≈ 0.00791 µM) | 0.625 µg/mL (≈ 0.495 µM) |  |  |  |  |
